Results published in patent US20230078764A1 (Yumanity Therapeutics, Inc., priority 2019, published 2023).
Where two headings read alike, the source gives them in different places.

Experiments:
human SCD1 = biological target: T1, human SCD1 (Homo sapiens, UniProt O00767); experiment: Growth inhibition of yeast strain expressing human SCD1 as sole desaturase (OLE1 deleted), OD600 readout; type: cell-based
T1 construct: expressed in transfected cells; host or cells: yeast strain with OLE1 deleted, plasmid-borne human SCD1 (selected in SD-Ura)
T1 sequence (O00767 1-359): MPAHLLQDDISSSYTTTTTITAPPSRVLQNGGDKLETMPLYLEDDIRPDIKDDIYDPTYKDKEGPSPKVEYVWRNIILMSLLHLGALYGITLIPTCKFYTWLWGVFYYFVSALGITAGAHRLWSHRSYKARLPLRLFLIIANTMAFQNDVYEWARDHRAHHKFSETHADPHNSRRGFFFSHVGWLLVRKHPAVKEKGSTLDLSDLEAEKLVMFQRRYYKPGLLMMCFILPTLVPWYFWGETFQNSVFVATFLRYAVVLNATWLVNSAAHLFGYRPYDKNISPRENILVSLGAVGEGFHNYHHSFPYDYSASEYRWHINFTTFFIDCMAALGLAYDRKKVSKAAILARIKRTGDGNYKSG

human SCD5 = biological target: T2, human SCD5 (Homo sapiens, UniProt Q86SK9); experiment: Growth inhibition of yeast strain expressing human SCD5 as sole desaturase (OLE1 deleted), OD600 readout; type: cell-based
T2 construct: expressed in transfected cells; host or cells: yeast strain with OLE1 deleted, plasmid-borne human SCD5 (selected in SD-Ura)
T2 sequence (Q86SK9 1-330): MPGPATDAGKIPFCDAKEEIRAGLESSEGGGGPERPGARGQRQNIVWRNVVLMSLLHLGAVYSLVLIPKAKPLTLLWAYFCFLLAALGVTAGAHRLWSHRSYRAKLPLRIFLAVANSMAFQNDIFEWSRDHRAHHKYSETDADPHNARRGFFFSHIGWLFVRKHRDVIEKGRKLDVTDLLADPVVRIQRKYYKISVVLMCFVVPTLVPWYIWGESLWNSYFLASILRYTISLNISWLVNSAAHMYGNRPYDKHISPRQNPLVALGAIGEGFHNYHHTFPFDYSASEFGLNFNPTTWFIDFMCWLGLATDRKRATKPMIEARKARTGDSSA

[1] = yeast strain expressing human SCD1 as sole desaturase, growth (OD600) after 40 h at 30° C., read-out: SCD1 IC50
[2] = yeast strain expressing human SCD5 as sole desaturase, growth (OD600) after 40 h at 30° C., read-out: SCD5 IC50

Row | Structure (SMILES) | IC50 (human SCD1; [1]) | IC50 (human SCD5; [2]) | IC50 (human SCD1; SCD1 IC50) | IC50 (human SCD5; SCD5 IC50)
1 | CN1N=C(C(=O)Nc2ncc(Cc3cc(F)cc(Cl)c3)s2)CCC1=O [Compound 216, N-(5-(3-chloro-5-fluorobenzyl)thiazol-2-yl)-1-methyl-6-oxo-1,4,5,6-tetrahydropyridazine-3-carboxamide] | 0.01 µM | 0.02 µM |  | 
2 | Cn1cc(C(=O)Nc2ccc(Cc3cc(F)c(F)c(F)c3)cn2)ccc1=O [Compound 56, 1-methyl-6-oxo-N-(5-(3,4,5-trifluorobenzyl)pyridin-2-yl)-1,6-dihydropyridine-3-carboxamide] |  |  | 0.02 µM | 0.01 µM
3 | CN1N=C(C(=O)Nc2ccc(Oc3ccc(Cl)cc3)cc2)CCC1=O [Compound 158, N-(4-(4-chlorophenoxy)phenyl)-1-methyl-6-oxo-1,4,5,6-tetrahydropyridazine-3-carboxamide] | 10.5 µM | 6.19 µM |  | 
4 | CN1N=C(C(=O)Nc2ccc(Cc3cccc(F)c3)cc2)CCC1=O [Compound 1, N-(4-(3-fluorobenzyl)phenyl)-1-methyl-6-oxo-1,4,5,6-tetrahydropyridazine-3-carboxamide] | > 45 µM | 5.16 µM |  | 
5 | CN1N=C(C(=O)Nc2nc(Cc3ccc(F)cc3)cs2)CCC1=O [Compound 378] | > 45 µM | > 45 µM |  | 
6 | CN1N=C(C(=O)Nc2ccc(Cc3cccc(C(F)(F)F)n3)cn2)CCC1=O [Compound 445] | > 45 µM | > 45 µM |  | 
7 | CCn1cc(C(=O)Nc2ccc(CC3CCCCC3)cn2)ccc1=O [Compound 326] | > 45 µM | 4.71 µM |  | 
8 | CN1N=C(C(=O)Nc2ncc(Cc3cccc(F)c3)o2)CCC1=O [Compound 399] | > 45 µM | > 45 µM |  | 
9 | Cn1nc(C(=O)Nc2ccc(Cc3cc(F)cc(Cl)c3)nn2)ccc1=O [Compound 384] | > 45 µM | > 45 µM |  | 
10 | CN1N=C(C(=O)Nc2ncc(C(=O)c3cccc(F)c3)s2)CCC1=O [Compound 413] | > 45 µM | > 45 µM |  | 
11 | CN1N=C(C(=O)Nc2ccc(Cc3ccc(F)c(Cl)c3)nn2)CCC1=O [Compound 179, N-(6-(3-chloro-4-fluorobenzyl)pyridazin-3-yl)-1-methyl-6-oxo-1,4,5,6-tetrahydropyridazine-3-carboxamide] | > 45 µM | 1.03 µM |  | 
12 | Cn1cc(C(=O)Nc2nnc(Cc3cc(F)cc(Cl)c3)s2)ccc1=O [Compound 431] | 1.07 µM | > 45 µM |  | 
13 | CN1N=C(C(=O)Nc2ccc(Cc3cncc(Cl)c3)cn2)CCC1=O [Compound 274] | > 45 µM | 0.76 µM |  | 
14 | CN1N=C(C(=O)Nc2ncc(Cc3ccc4ccccc4n3)s2)CCC1=O [Compound 390] | > 45 µM | > 45 µM |  | 
15 | Cn1nc(C(=O)Nc2ccc(OCc3cccc(Cl)c3)cn2)ccc1=O [Compound 171, N-(5-(3-chlorobenzyloxy)pyridin-2-yl)-1-methyl-6-oxo-1,6-dihydropyridazine-3-carboxamide] | > 45 µM | 0.86 µM |  | 
16 | O=C(Nc1ccc(Cc2cccc(F)c2)nn1)c1ccc(=O)n(C2CC2)n1 [Compound 178, 1-cyclopropyl-N-{6-[(3-fluorophenyl)methyl]pyridazin-3-yl}-6-oxo-1,6-dihydropyridazine-3-carboxamide] | 6.67 µM | 0.77 µM |  | 
17 | CCn1cc(C(=O)Nc2ccc(Cc3cccc(F)c3)nn2)ccc1=O [Compound 410] | > 45 µM | > 45 µM |  | 
18 | CN1N=C(C(=O)Nc2cnc(Cc3cccc(Cl)c3)nc2)CCC1=O [Compound 443] | > 45 µM | > 45 µM |  | 
19 | Cn1cc(C(=O)Nc2ccc(Oc3cccc(Cl)c3)cn2)ccc1=O [Compound 161, N-[5-(3-chlorophenoxy)pyridin-2-yl]-1-methyl-6-oxo-1,6-dihydropyridine-3-carboxamide] | > 45 µM | 1.64 µM |  | 
20 | O=C(Nc1ccc(Cc2cccc(Cl)c2)cn1)N1CC2(COC2)C1 [Compound 250] | > 45 µM | 9.75 µM |  | 
21 | Cn1cc(C(=O)Nc2ccc(Cc3ccc4c(c3)COC4)cn2)ccc1=O [Compound 62, N-(5-((1,3-dihydroisobenzofuran-5-yl)methyl)pyridin-2-yl)-1-methyl-6-oxo-1,6-dihydropyridine-3-carboxamide] |  |  | 2.34 µM | 2.06 µM
22 | Cn1cc(C(=O)Nc2ccc(Oc3ccc(F)c(F)c3)cn2)ccc1=O [Compound 587] | 17 µM | 1.1 µM |  | 
23 | Cn1cc(-c2ccc(C(=O)NCc3cccc(F)c3)nc2)ccc1=O [Compound 467] | > 45 µM | > 45 µM |  | 
24 | N#Cc1cc(C(=O)Nc2ccc(Cc3cc(F)cc(F)c3)cn2)cnc1C#N [Compound 612] | 4.4 µM | 1.2 µM |  | 
25 | COC(c1cccc(F)c1)c1cnc(NC(=O)C2=NN(C)C(=O)CC2)s1 (stereo not shown) [Compound 204, N-(5-((3-fluorophenyl)(methoxy)methyl)thiazol-2-yl)-1-methyl-6-oxo-1,4,5,6-tetrahydropyridazine-3-carboxamide] | > 45 µM | 27.9 µM |  | 
26 | Cn1cc(C(=O)Nc2ccc(Cc3ccc(F)c(F)c3)cn2)ccc1=O [Compound 66, N-(5-(3,4-difluorobenzyl)pyridin-2-yl)-1-methyl-6-oxo-1,6-dihydropyridine-3-carboxamide] |  |  | 1.44 µM | 0.01 µM
27 | CCn1cc(NC(=O)c2ccc(Cc3cc(F)cc(Cl)c3)cn2)ccc1=O [Compound 79, 5-(3-Chloro-5-fluorobenzyl)-N-(1-ethyl-6-oxo-1,6-dihydropyridin-3-yl)picolinamide] | 5.19 µM | 0.01 µM |  | 
28 | Cn1nc(C(=O)Nc2ccc(Cc3ccc(F)c(Cl)c3)cn2)ccc1=O [Example 46, N-(5-(3-chloro-4-fluorobenzyl)pyridin-2-yl)-1-methyl-6-oxo-1,6-dihydropyridazine-3-carboxamide] | 0.06 µM | 0.01 µM |  | 

Second part, led by results:

Row | IC50 (human SCD1; [1]) | IC50 (human SCD5; [2]) | Structure (SMILES) | IC50 (human SCD1; SCD1 IC50) | IC50 (human SCD5; SCD5 IC50)
29 | 0.06 µM | 0.01 µM | Cc1ccc(C(=O)Nc2ccc(Cc3cccc(Cl)c3)cn2)nn1 [Compound 243] |  | 
30 | 1.26 µM | 0.49 µM | COCc1ccc(C(=O)Nc2ccc(Cc3cccc(Cl)c3)cn2)cn1 [Compound 136, N-(5-(3-chlorobenzyl)pyridin-2-yl)-6-(methoxymethyl)nicotinamide] |  | 
31 | 2.96 µM | 0.27 µM | Cn1c(C(=O)Nc2ccc(Cc3cccc(F)c3)cn2)coc1=O [Compound 283] |  | 
32 | > 45 µM | 0.029 µM | Cc1cc(C(=O)Nc2ccc(Cc3cc(F)cc(F)c3)cn2)nn(C)c1=O [Compound 524] |  | 
33 | 6.6 µM | 0.22 µM | N#Cc1ccc(C(=O)Nc2ccc(Cc3ccc(F)c(F)c3)cn2)cn1 [Compound 541] |  | 
34 | 0.56 µM | 0.01 µM | Cn1cc(NC(=O)c2ccc(Cc3cccc(Cl)c3)cn2)ccc1=O [Compound 57, 5-(3-chlorobenzyl)-N-(1-methyl-6-oxo-1,6-dihydropyridin-3-yl)picolinamide] |  | 
35 | 38.5 µM | 7.04 µM | CC(C)(O)c1ccc(C(=O)Nc2ccc(Cc3cccc(Cl)c3)cn2)cn1 [Compound 374] |  | 
36 | 0.09 µM | 0.024 µM | O=C(Nc1ccc(Cc2cc(F)cc(F)c2)cn1)c1ccncc1 [Compound 651] |  | 
37 | > 45 µM | 5.6 µM | Cn1nc(C(=O)Nc2ccc(Nc3cccc(F)c3)cn2)ccc1=O [Compound 300] |  | 
38 | 0.01 µM | 0.01 µM | Cn1ccc(C(=O)Nc2ccc(Cc3cccc(Cl)c3)cn2)n1 [Compound 91, N-(5-(3-chlorobenzyl)pyridin-2-yl)-1-methyl-1H-pyrazole-3-carboxamide] |  | 
39 | 0.25 µM | 0.01 µM | O=C(Nc1ccc(Cc2cc(F)cc(Cl)c2)cn1)c1ccc(=O)n(C2CC2)n1 [Compound 74, N-(5-(3-chloro-5-fluorobenzyl)pyridin-2-yl)-1-cyclopropyl-6-oxo-1,6-dihydropyridazine-3-carboxamide] |  | 
40 | 0.65 µM | 2.2 µM | O=C(Nc1ncc(Br)cn1)c1ccc(Cc2cccc(F)c2)cn1 [Compound 631] |  | 
41 | 2.8 µM | 0.26 µM | O=C(Nc1ccc(Cc2cccc(F)c2)cn1)c1ncc(F)cn1 [Compound 504] |  | 
42 | 1.37 µM | 0.24 µM | CC(O)c1ccc(C(=O)Nc2ccc(Cc3cccc(Cl)c3)cn2)cn1 (stereo not shown) [Compound 368] |  | 
43 | > 45 µM | > 45 µM | Cc1nc(C(=O)Nc2ccc(Cc3cccc(F)c3)cn2)ccc1F [Compound 448] |  | 
44 | 0.71 µM | 0.1 µM | Cn1cc(C(=O)Nc2ccc(Cc3cccc(C(F)F)c3)cn2)ccc1=O [Compound 545] |  | 
45 | 1.3 µM | 0.21 µM | O=C(Nc1ccc(Cc2cccc(F)c2)cn1)c1coc(Cl)n1 [Compound 645] |  | 
46 | 0.56 µM | 0.015 µM | Cn1nc(NC(=O)c2ccc(Cc3ccc(F)cc3)cn2)ccc1=O [Compound 495] |  | 
47 | 1.76 µM | 0.01 µM | Cn1cccc(C(=O)Nc2ccc(Cc3ccc(F)c(F)c3)cn2)c1=O [Compound 328] |  | 
